Patent publication US5972933A, “Method of treating microbial infections” (Ed. Geistlich Sohne AG Fur Chemische Industrie, priority 1998, dated 1999)
Converted amounts (≈) assume the structure as drawn. “Also recorded” adds a separate entry of the source. Read-outs that look alike come from different tables or passages of the source.

Columns and labels:
[1] = tested on: Enterococcus faecalis; test: Taurolidine in vitro susceptibility, E. faecalis (Example 4); format: cell-based; details: E. faecalis
From the text: (§1) The in vitro susceptibility to taurolidine of a panel of clinical isolates and reference strains of Enterococcus faecium (n=20,7 strains vancomycin resistant) and Enterococcus faecalis (n-53,5 strains vancomycin resistant) has been examined. […] In all cases, the Minimum Bacteriocidal Concentration (MBC) of taurolidine was within 2 dilutions of the corresponding value for MIC confirming a bactericidal mode of action. In vitro resistance to taurolidine was not observed.

[2] = tested on: Enterococci; test: Taurolidine in vitro susceptibility, Enterococci overall (Example 4); format: cell-based, Enterococcus faecium and Enterococcus faecalis
From the text: as §1

[3] = tested on: E. faecium; test: Two percent taurolidine solution tested against bacteria, E. faecium (Example 5); format: cell-based; details: Enterococcus faecium, 48 h, 5×10^4 CFU/well, one line per sample (strain)
Protocol: (§2) Two percent taurolidine solution was tested against various bacteria at 5×10^4 CFU/well, according to Manual of Clinical Microbiology, 6th edition, P. R. Murray et al., pp. 1334-1335.

[4] = tested on: Staph. app.; test: Two percent taurolidine solution tested against bacteria, Staph. app. (Example 5); format: cell-based; details: 5×10^4 CFU/well
Protocol: as §2

[5] = tested on: E. faecalis; test: Two percent taurolidine solution tested against bacteria, E. faecalis (Example 5); format: cell-based; details: Enterococcus faecalis, 24 h, 5×10^4 CFU/well, one line per sample (strain)
Protocol: as §2

[6] = tested on: bacteria and fungi; test: Antimicrobial activity (general statements); format: cell-based
[7] = tested on: TNF production; test: TNF production in human blood / antibiotic-treated cultures; format: cell-based
From the text: Taurolidine and/or Taurultam prevent over-production of cytokines in the patient by monocytes of the blood.

[8] = tested on: bacteria and fungi; details: known antimicrobial substances; cited from earlier work
[9] = cited from earlier work

O=S1(=O)CCN(CN2CCS(=O)(=O)NC2)CN1 [Taurolidine]
MIC ([1]; VAN R strains, read-out: MIC, Min.): 125 µg/mL (≈ 440 µM)
MIC ([1]; VAN R strains, read-out: MIC, Mode): 250 µg/mL (≈ 879 µM)
MBC ([1]; VAN S strains, read-out: MBC, Avg.): 566 µg/mL (≈ 1990 µM)
MBC ([1]; VAN S strains, read-out: MBC, Max.): 750 µg/mL (≈ 2640 µM)
MBC ([1]; VAN S strains, read-out: MBC, Mean): 566 µg/mL (≈ 1990 µM)
MBC ([1]; VAN S strains, read-out: MBC, Median): 500 µg/mL (≈ 1760 µM)
MBC ([1]; VAN S strains, read-out: MBC, Min.): 375 µg/mL (≈ 1320 µM)
MBC ([1]; VAN S strains, read-out: MBC, Mode): 500 µg/mL (≈ 1760 µM)
MIC ([1]; VAN S strains, read-out: MIC, Avg.): 289 µg/mL (≈ 1020 µM)
MIC ([1]; VAN S strains, read-out: MIC, Max.): 500 µg/mL (≈ 1760 µM)
MIC ([1]; VAN S strains, read-out: MIC, Mean): 289 µg/mL (≈ 1020 µM)
MIC ([1]; VAN S strains, read-out: MIC, Median): 250 µg/mL (≈ 879 µM)
MIC ([1]; VAN S strains, read-out: MIC, Min.): 190 µg/mL (≈ 668 µM)
MIC ([1]; VAN S strains, read-out: MIC, Mode): 250 µg/mL (≈ 879 µM)
MBC ([1]; VAN S, Germany, read-out: MBC, (VAN S) model): 750 µg/mL (≈ 2640 µM)
MIC ([1]; VAN S, Germany, read-out: MIC, (VAN S) model): 375 µg/mL (≈ 1320 µM)
MBC ([1]; VAN S, Switzerland, read-out: MBC, (VAN S) model): 500 µg/mL (≈ 1760 µM)
MIC ([1]; VAN S, Switzerland, read-out: MIC, (VAN S) model): 375 µg/mL (≈ 1320 µM)
MBC ([1]; VAN S, UK, read-out: MBC, (VAN S) model): 500 µg/mL (≈ 1760 µM)
MIC ([1]; VAN S, UK, read-out: MIC, (VAN S) model): 250 µg/mL (≈ 879 µM)
MBC ([1]; all strains, read-out: MBC, Avg.): 606 µg/mL (≈ 2130 µM)
MBC ([1]; all strains, read-out: MBC, Max.): 750 µg/mL (≈ 2640 µM)
MBC ([1]; all strains, read-out: MBC, Mean): 606 µg/mL (≈ 2130 µM)
MBC ([1]; all strains, read-out: MBC, Median): 500 µg/mL (≈ 1760 µM)
MBC ([1]; all strains, read-out: MBC, Min.): 375 µg/mL (≈ 1320 µM)
MBC ([1]; all strains, read-out: MBC, Mode): 500 µg/mL (≈ 1760 µM)
MIC ([1]; all strains, read-out: MIC, Avg.): 310 µg/mL (≈ 1090 µM)
MIC ([1]; all strains, read-out: MIC, Max.): 500 µg/mL (≈ 1760 µM)
MIC ([1]; all strains, read-out: MIC, Mean): 310 µg/mL (≈ 1090 µM)
MIC ([1]; all strains, read-out: MIC, Median): 375 µg/mL (≈ 1320 µM)
MIC ([1]; all strains, read-out: MIC, Min.): 125 µg/mL (≈ 440 µM)
MIC ([1]; all strains, read-out: MIC, Mode): 375 µg/mL (≈ 1320 µM)
difference in degree of susceptibility between E. faecalis and E. faecium [2]: no difference in degree of susceptibility
In vitro resistance to taurolidine ([2]; E. faecium and E. faecalis): not observed
MBC relative to corresponding MIC ([2]; all cases, bactericidal mode of action): ≤ 2 dilutions
difference in MICs or MBCs between strains ([2]; vancomycin-sensitive or vancomycin-resistant, various locations across Europe): No differences were noted
MIC [3]: 250 µg/mL (≈ 879 µM)
MBC ([4]; 24 h): 375 µg/mL (≈ 1320 µM)
MIC ([4]; 24 h, read-out: MIC 24 h): 190 µg/mL (≈ 668 µM)
MIC ([4]; 48 h, read-out: MIC 48 h): 250 µg/mL (≈ 879 µM)
MBC [5]: 500 µg/mL (≈ 1760 µM)
rate of bacterial killing [6]: kills bacteria slowly
resistance development [6]: Resistance has not been observed either in vivo or in vitro; also recorded: no resistance development by microbes has been observed
in vitro effectiveness against bacterial strains ([6]; in vitro, including multi-resistant strains, VRE and MRSA): effective against all gram negative and gram positive bacterial strains tested to-date
in vitro effectiveness against antibiotic-resistant pathogens ([6]; in vitro, pathogens resistant to methicillin and vancomycin): fully effective in vitro
antifungal activity ([6]; yeast-like and filamentous fungi): useful activity against most yeast-like and filamentous fungi
TNF production ([7]; added to antibiotic-treated cultures): prevents a rise in TNF production
neutralization of released endotoxins ([7]; antibiotic-treated cultures): nearly complete neutralization of released endotoxins
antimicrobial spectrum [8]: broad-spectrum activity against aerobic and anaerobic bacteria, mycobacteria and fungi
half-life in vivo [9]: short half-life in vivo
